Data from PMC5520972 (Cancer chemotherapy and pharmacology, 2017).

Columns and labels:
[1] = tested on: AAG and albumin; conditions: bound to both AAG and albumin; cited from earlier work
[2] = Safety and tolerability, dose-limiting toxicities; type: in vivo, human; conditions: for Dose-limiting toxicity, hyperbilirubinemia (number of patients): days 1–8
[3] = cited from earlier work
[4] = tested on: HCC; experiment: Response assessment; type: in vivo, human; conditions: of 11 HCC patients; 3 based solely on symptomatic deterioration

CS(=O)(=O)c1ccc(C(=O)Nc2ccc(Cl)c(-c3ccccn3)c2)c(Cl)c1 [vismodegib]
Plasma protein bound [1]: greater than 98%
AEs grade 3 or 4 in severity ([2]; all cohorts): 67.7%
Total patients who experienced DLTs of hyperbilirubinemia ([2]; all cohorts, 31 patients): three
Patients who experienced at least one AE ([2]; all groups, 31 patients): 96.8%
Adverse event frequency: abdominal pain ([2]; all patients): 22.6%
Adverse event frequency: decreased appetite ([2]; all patients): 22.6%
Adverse event frequency: dysgeusia ([2]; all patients): 22.6%
Adverse event frequency: fatigue ([2]; all patients): 67.7%
Adverse event frequency: muscle spasms ([2]; all patients): 22.6%
Adverse event frequency: nausea ([2]; all patients): 35.5%
Adverse event frequency: vomiting ([2]; all patients): 22.6%
Serious AE: abdominal pain ([2]; all patients (2 patients)): 6.5%
Serious AE: hyperbilirubinemia ([2]; all patients (2 patients)): 6.5%
Serious AE: upper gastrointestinal hemorrhage ([2]; all patients (2 patients)): 6.5%
Patients who experienced serious AEs ([2]; all patients (16 patients)): 51.6%
AEs grade 3 or 4 in severity ([2]; control cohort): 44.4%
AEs grade 3 or 4 in severity ([2]; mild cohort): 75%
Patients who experienced serious AEs ([2]; mild cohort (4 patients)): 50%
Adverse events leading to withdrawal of vismodegib: intracranial bleed ([2]; mild cohort n = 8): 1 (intracranial bleed)
Deaths due to progression of disease (number of patients) ([2]; mild cohort n = 8): 1
Dose-limiting toxicity, hyperbilirubinemia (number of patients) ([2]; mild cohort n = 8, oral 150 mg daily): 0
AEs grade 3 or 4 in severity ([2]; moderate cohort): 87.5%
Patients who experienced serious AEs ([2]; moderate cohort (6 patients)): 75%
Adverse events leading to withdrawal of vismodegib: GI bleeds ([2]; moderate cohort n = 8): 2
Adverse events leading to withdrawal of vismodegib: hyperbilirubinemia ([2]; moderate cohort n = 8): 1
Deaths due to progression of disease (number of patients) ([2]; moderate cohort n = 8): 3
Patients who experienced serious AEs ([2]; normal cohort (3 patients)): 33.3%
Adverse events leading to withdrawal of vismodegib ([2]; normal cohort n = 9): 0
Deaths due to progression of disease (number of patients) ([2]; normal cohort n = 9): 0
Dose-limiting toxicity, hyperbilirubinemia (number of patients) ([2]; normal cohort n = 9, oral 150 mg daily): 0
AEs grade 3 or 4 in severity ([2]; severe cohort): 66.7%
Patients who experienced serious AEs ([2]; severe cohort (3 patients)): 50%
Adverse events leading to withdrawal of vismodegib: fatigue ([2]; severe cohort n = 6): 1
Adverse events leading to withdrawal of vismodegib: hyperbilirubinemia ([2]; severe cohort n = 6): 2
Adverse events leading to withdrawal of vismodegib: hyponatremia ([2]; severe cohort n = 6): 1
Adverse events leading to withdrawal of vismodegib: leukocytosis ([2]; severe cohort n = 6): 1
Deaths due to progression of disease (number of patients) ([2]; severe cohort n = 6): 1
Cmax interpatient coefficient of variation [3]: ~37.4%
PK variability explained by AAG levels [3]: > 70%
Percentage of dose excreted in urine over a 24-h interval (all patients, regardless of hepatic function, day 8): < 1%
Renal clearance (CLR) (patients with hepatic impairment compared to normal hepatic function): lower
HCC patients with progressive disease [4]: nine
